The target of assay [1] is κ-opioid receptor (KOR) (Homo sapiens, UniProt P41145). As to the kind of experiment: biochemical. Format: binding.
Assay [2] concerns the target kappa opiate receptor (KOR) (Homo sapiens, UniProt P41145). Particulars: Roth 2002; cited from earlier work.
For assay [3] the following is noted: Siebert 1994; cited from earlier work.

Sequence of κ-opioid receptor (KOR) (P41145 whole entry): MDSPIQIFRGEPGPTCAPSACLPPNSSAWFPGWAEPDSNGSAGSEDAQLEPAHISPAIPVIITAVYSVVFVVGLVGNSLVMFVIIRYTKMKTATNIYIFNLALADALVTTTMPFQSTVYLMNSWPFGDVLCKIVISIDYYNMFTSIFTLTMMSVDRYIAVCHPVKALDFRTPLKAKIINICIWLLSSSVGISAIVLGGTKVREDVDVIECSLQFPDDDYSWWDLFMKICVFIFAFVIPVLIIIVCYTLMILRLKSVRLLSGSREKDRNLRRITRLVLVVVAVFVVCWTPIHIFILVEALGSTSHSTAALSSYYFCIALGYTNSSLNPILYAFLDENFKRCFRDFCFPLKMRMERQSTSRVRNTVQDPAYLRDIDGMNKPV
Sequence of kappa opiate receptor (KOR) (P41145 whole entry): as above

For orientation: Ki means a measure of affinity in units of concentration, obtained from inhibition or displacement. A higher Ki goes with lower affinity. With `COC(=O)[C@@H]1C[C@H](S)C(=O)[C@H]2[C@@]1(C)CC[C@H]1C(=O)O[C@H](c3ccoc3)C[C@]21C` [2-Thiol salvinorin B], in assay [1], the Ki is 11.2 nM.
For `COC(=O)[C@@H]1C[C@H](OC(C)=O)C(=O)[C@H]2[C@@]1(C)CC[C@H]1C(=O)O[C@H](c3ccoc3)C[C@]21C` [Salvinorin A], the “agonist character at the kappa opiate receptor” value in assay [2] is given as “full agonist”. The “human dose (psychedelic agent)” value in assay [3] was 0.5 to 1 mg.
For the compound `COC(=O)[C@@H]1C[C@H](SC(C)=O)C(=O)[C@H]2[C@@]1(C)CC[C@H]1C(=O)O[C@H](c3ccoc3)C[C@]21C` [Salvinorinyl-2-thioacetate], the Ki in assay [1] turned out to be 7.9 nM. This counts as single-digit nanomolar.

The values are drawn from patent US7687538B2 (priority 2004, dated 2010).
